Consider 26 molecules from US10882856B2 (BeiGene, Ltd., priority 2017, dated 2021).

By EC50 is commonly meant the concentration that produces a half-maximal response. A higher EC50 goes with lower potency in that assay. The IC50 is the midpoint of a concentration-inhibition curve.

The structures appear in SMILES notation. Structures can show the parent of a compound that is named as a salt. Some results are limits rather than exact numbers.

For assay [1], the target named is T1, IDO1 (Homo sapiens, UniProt P14902). In words: Hela cell-based IDO1 assay. The conditions noted are these: Hela cells. The procedure, abridged:
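HeLa cells were seeded at 8000 per well in 96-well plates in phenol red-free DMEM with 10% FBS. After 4 hours, DMSO-diluted compound dilutions were added with IFN-γ (final 100 ng/mL) and 0.4 mM L-Trp, and cells were kept 48 hours at 37 °C, 5% CO2. Supernatant was deproteinised with trichloroacetic acid, and kynurenine was measured at 480 nm after adding 2% 4-(dimethylamino)benzaldehyde. Potency came from four-parameter logistic fits in XLfit.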

In assay [2] the target is T2, cellular TDO2 in HEK293-TDO2 cells (Homo sapiens, UniProt P48775).
T2 construct: expressed in transfected cells; host or cells: HEK293 (ATCC), stably transfected
Nature of the assay: 293-TDO2 cell-based assay (Kyn colorimetric). The conditions noted are these: 48 hours of incubation. The method, boiled down: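 Kyn formed from L-Trp was read colorimetrically at 480 nm (TCA deproteinisation, then 2% 4-(dimethylamino)benzaldehyde). Compounds were added to 293-TDO2 cells 4 h post-seeding and left 48 h at 37° C. A four-parameter logistic model gave IC50 values.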

Assay [3] concerns the target T1, IDO1. In words: IDO1 enzymatic assay. Type of assay: biochemical. On the set-up: His tag (N); made in house; host or cells: E. coli. The conditions noted are these: read-out: Enzyme IC50 IDO1. The method, boiled down: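 Recombinant IDO1 carrying an N-terminal His tag and purified from E. coli was used at 50 nM with test compound, 1.3 mM D-tryptophan, 5 mM L-ascorbic acid, methylene blue and 0.4 mg/mL catalase in 50 mM potassium phosphate pH 7.5 containing 0.1% BSA. This mixture was incubated at 24 °C for 1.5 hours, after which N'-formylkynurenine formation was followed continuously at 321 nm for 1 hour and activity was taken as the slope. IC50 was derived from the enzyme activity remaining as compound concentration increased.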

T2 sequence (P48775 whole entry): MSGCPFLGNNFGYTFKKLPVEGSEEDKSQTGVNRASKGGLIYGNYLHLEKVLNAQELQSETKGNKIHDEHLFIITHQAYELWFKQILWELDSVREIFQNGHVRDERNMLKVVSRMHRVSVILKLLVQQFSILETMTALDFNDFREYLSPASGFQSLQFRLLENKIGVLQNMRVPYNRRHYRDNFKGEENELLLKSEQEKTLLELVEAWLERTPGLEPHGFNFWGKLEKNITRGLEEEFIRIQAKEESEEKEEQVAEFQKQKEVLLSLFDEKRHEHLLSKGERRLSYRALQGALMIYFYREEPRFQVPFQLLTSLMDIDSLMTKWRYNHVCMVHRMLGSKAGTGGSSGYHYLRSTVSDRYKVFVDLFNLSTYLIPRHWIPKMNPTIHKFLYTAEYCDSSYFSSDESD
T1 sequence (P14902 whole entry): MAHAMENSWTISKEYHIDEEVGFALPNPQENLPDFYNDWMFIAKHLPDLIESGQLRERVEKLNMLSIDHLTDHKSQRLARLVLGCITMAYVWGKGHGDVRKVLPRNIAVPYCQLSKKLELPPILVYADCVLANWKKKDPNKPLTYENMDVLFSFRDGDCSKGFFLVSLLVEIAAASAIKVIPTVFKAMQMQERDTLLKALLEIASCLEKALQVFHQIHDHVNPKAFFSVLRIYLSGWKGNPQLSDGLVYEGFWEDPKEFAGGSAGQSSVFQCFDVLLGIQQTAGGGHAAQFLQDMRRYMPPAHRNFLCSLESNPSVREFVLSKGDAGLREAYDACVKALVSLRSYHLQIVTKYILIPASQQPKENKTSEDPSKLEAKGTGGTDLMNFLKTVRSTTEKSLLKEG

In the case of `OCC(CCl)Oc1ccc(C2CCC(C(O)c3c(C4CC4)ccc4cncn34)CC2)cc1` (stereo not drawn) [Example D108, 3-chloro-2-(4-(4-((6-cyclopropylimidazo[1,5-a]pyridin-5-yl) (hydroxy)methyl)cyclohexyl)phenoxy)propan-1-ol], the EC50 on IDO1 [1] was 72 nM; in assay [2], over 10000 nM. Besides, the IC50 at IDO1 [3] stood at 30 nM.
For `OC(c1c(C2CC2)ccc2cncn12)C1CCC(c2ccc(OC3COC3)cc2)CC1` (stereo not drawn) [Example D109, (6-cyclopropylimidazo[1,5-a]pyridin-5-yl)(4-(4-(oxetan-3-yloxy)phenyl)cyclohexyl)methanol], the concentration giving a half-maximal response (EC50) was 206 nM on IDO1 [1] and over 10000 nM in assay [2]. Also, the IC50 on IDO1 [3] worked out at 39 nM.
With `N#Cc1ccc(C2CCC(C(O)c3c(C4CC4)ccc4cncn34)CC2)cc1` (stereo not drawn) [Example D110, 4-(4-((6-cyclopropylimidazo[1,5-a]pyridin-5-yl)(hydroxy)methyl)cyclohexyl)benzonitrile], the results for the concentration giving a half-maximal response (EC50) (at IDO1 [1]; in assay [2]) were 373 nM and over 10000 nM, respectively. Further, the IC50 at IDO1 [3] stood at 40 nM.
For the molecule `O=C(O)c1ccc(C2CCC(C(O)c3c(C4CC4)ccc4cncn34)CC2)cc1` (stereo not drawn) [Example D111, 4-(4-((6-cyclopropylimidazo[1,5-a]pyridin-5-yl)(hydroxy)methyl)cyclohexyl)benzoic acid], the results for the EC50 (at IDO1 [1]; in assay [2]) were 470 nM and over 10000 nM, respectively. Further, the concentration for half-maximal inhibition (IC50) on IDO1 [3] was found to be 25 nM.
Regarding `Oc1ccccc1C1CCC(C(O)c2c(C3CC3)ccc3cncn23)CC1` (stereo not drawn) [Example D112, 2-(4-((6-cyclopropylimidazo[1,5-a]pyridin-5-yl)(hydroxy)methyl)cyclohexyl)phenol], the EC50 on IDO1 [1] was 50 nM; in assay [2] it was over 10000 nM. In addition, the half-inhibitory concentration (IC50) at IDO1 [3] was found to be 43 nM.
`COc1ccccc1C1CCC(C(O)c2c(C3CC3)ccc3cncn23)CC1` (stereo not drawn) [Example D113, (6-cyclopropylimidazo[1,5-a]pyridin-5-yl)(4-(2-methoxyphenyl)cyclohexyl)methanol]: the concentration for a half-maximal effect (EC50) on IDO1 [1] is 95 nM; in assay [2] it was over 10000 nM. Further, on IDO1 [3], the IC50 turned out to be 43 nM.
`OC(c1c(C2CC2)ccc2cncn12)C1CCC(c2ccc(OC3CCOCC3)cc2)CC1` (stereo not drawn) [Example D114, (6-cyclopropylimidazo[1,5-a]pyridin-5-yl)(4-(4-((tetrahydro-2H-pyran-4-yl)oxy)phenyl)cyclohexyl)methanol]: the 50% effective concentration (EC50) at IDO1 [1] was 155 nM; in assay [2], over 10000 nM. Moreover, at IDO1 [3], the IC50 turned out to be 32 nM.
The corresponding values for `O[C@H](c1c(C2CC2)ccc2cncn12)[C@H]1CC[C@@H](c2ccc(OC3CCOCC3)cc2)CC1` [Example D114d, (S)-(6-cyclopropylimidazo[1,5-a]pyridin-5-yl)((1 s,4R)-4-(4-((tetrahydro-2H-pyran-4-yl)oxy)phenyl)cyclohexyl)methanol] are 5110 nM, over 10000 nM and 1400 nM.
`CC(C)c1ccc2cncn2c1C(O)C1CCC(c2ccc(Cl)cc2)CC1` (stereo not drawn) [Example D115, (4-(4-chlorophenyl)cyclohexyl)(6-isopropylimidazo[1,5-a]pyridin-5-yl)methanol]: the EC50 is 157 nM on IDO1 [1] and over 10000 nM in assay [2]. For the same molecule, the half-maximal inhibitory concentration (IC50) at IDO1 [3] is 57 nM.
Consider `OC(c1c(C2CC2)ccc2cncn12)C1CCC(c2cccc(Cl)c2)CC1` (stereo not drawn) [Example D116, (4-(3-chlorophenyl)cyclohexyl)(6-cyclopropylimidazo[1,5-a]pyridin-5-yl)methanol], for which the 50% effective concentration (EC50) on IDO1 [1] was 107 nM; in assay [2], over 10000 nM. Moreover, the IC50 at IDO1 [3] worked out at 44 nM.
As to `OC(c1c(C2CC2)ccc2cncn12)C1CCC(c2ccccc2Cl)CC1` (stereo not drawn) [Example D117], the EC50 on IDO1 [1] is 275 nM; in assay [2], over 10000 nM. For the same molecule, on IDO1 [3], the half-inhibitory concentration (IC50) worked out at 48 nM.
Regarding `OC(c1c(C2CC2)ccc2cncn12)C1CCC(c2ccc(Br)cc2)CC1` (stereo not drawn) [Example D118, (4-(4-bromophenyl)cyclohexyl)(6-cyclopropylimidazo[1,5-a]pyridin-5-yl)methanol], the half-maximal effective concentration (EC50) at IDO1 [1] is 546 nM; in assay [2], over 10000 nM. Besides, at IDO1 [3], the IC50 stood at 44 nM.
Consider `OC(c1c(C2CC2)ccc2cncn12)C1CCC(c2ccc(-c3ccccc3)cc2)CC1` (stereo not drawn) [Example D119, (4-([1,1′-biphenyl]-4-yl)cyclohexyl)(6-cyclopropylimidazo[1,5-a]pyridin-5-yl)methanol], for which the values for the concentration giving a half-maximal response (EC50) (at IDO1 [1]; in assay [2]) were 668 nM and over 10000 nM, respectively. Besides, the half-inhibitory concentration (IC50) on IDO1 [3] turned out to be 64 nM.
For the molecule `OC(c1c(C2CC2)ccc2cncn12)C1CCC(c2ccc(Oc3ccccc3)cc2)CC1` (stereo not drawn) [Example D120, (6-cyclopropylimidazo[1,5-a]pyridin-5-yl)(4-(4-phenoxyphenyl)cyclohexyl)methanol], the results for the EC50 (on IDO1 [1]; in assay [2]) were 700 nM and over 10000 nM, respectively. Besides, the IC50 on IDO1 [3] amounted to 100 nM.
`O=C(Nc1ccc(C2CCC(C(O)c3c(C4CC4)ccc4cncn34)CC2)cc1)OCc1ccccc1` (stereo not drawn) [Example D121]: the half-maximal effective concentration (EC50) on IDO1 [1] was 606 nM; in assay [2], over 10000 nM. In addition, the IC50 on IDO1 [3] was 73 nM.
With `Nc1ccc(C2CCC(C(O)c3c(C4CC4)ccc4cncn34)CC2)cc1` (stereo not drawn) [Example D122, (4-(4-aminophenyl)cyclohexyl)(6-cyclopropylimidazo[1,5-a]pyridin-5-yl)methanol], the concentration giving a half-maximal response (EC50) was 228 nM on IDO1 [1] and over 10000 nM in assay [2]. For the same molecule, at IDO1 [3], the IC50 came to 28 nM.
Consider `O=Cc1ccc(C2CCC(C(O)c3c(C4CC4)ccc4cncn34)CC2)cc1` (stereo not drawn) [Example D123, 4-(4-((6-cyclopropylimidazo[1,5-a]pyridin-5-yl)(hydroxy)methyl)cyclohexyl)benzaldehyde], for which the concentration for a half-maximal effect (EC50) at IDO1 [1] is 462 nM; in assay [2], over 10000 nM. The half-maximal inhibitory concentration (IC50) at IDO1 [3] came out at 54 nM.
For `CNC(=O)c1ccc(C2CCC(C(O)c3c(C4CC4)ccc4cncn34)CC2)cc1` (stereo not drawn) [Example D124, 4-(4-((6-cyclopropylimidazo[1,5-a]pyridin-5-yl)(hydroxy)methyl)cyclohexyl)-N-methylbenzamide], in that order: 188 nM, over 10000 nM and 22 nM.
Turning to `CN(C)C(=O)c1ccc(C2CCC(C(O)c3c(C4CC4)ccc4cncn34)CC2)cc1` (stereo not drawn) [Example D125, 4-(4-((6-cyclopropylimidazo[1,5-a]pyridin-5-yl)(hydroxy)methyl)cyclohexyl)-N,N-dimethylbenzamide], the concentration giving a half-maximal response (EC50) was 843 nM on IDO1 [1] and over 10000 nM in assay [2]. For the same molecule, the concentration for half-maximal inhibition (IC50) on IDO1 [3] stood at 24 nM.
As for `OC(c1c(C2CC2)ccc2cncn12)C1CCC(c2ccc(F)c(F)c2)CC1` (stereo not drawn) [Example D126, (6-cyclopropylimidazo[1,5-a]pyridin-5-yl)(4-(3,4-difluorophenyl)cyclohexyl)methanol], the concentration for a half-maximal effect (EC50) at IDO1 [1] was 64 nM; in assay [2] it was over 10000 nM. For the same molecule, the IC50 on IDO1 [3] was 40 nM.
Consider `OC(c1c(C2CC2)ccc2cncn12)C1CCC(c2ccc(F)cc2F)CC1` (stereo not drawn) [Example D127, (6-cyclopropylimidazo[1,5-a]pyridin-5-yl)(4-(2,4-difluorophenyl)cyclohexyl)methanol], for which the EC50 on IDO1 [1] is 170 nM; in assay [2], over 10000 nM. Besides, the 50% inhibitory concentration (IC50) on IDO1 [3] is 40 nM.
For `OC(c1c(C2CC2)ccc2cncn12)C1CCC(c2ccc(Cl)c(F)c2)CC1` (stereo not drawn) [Example D128, (4-(4-chloro-3-fluorophenyl)cyclohexyl)(6-cyclopropylimidazo[1,5-a]pyridin-5-yl)methanol], in that order: 260 nM, over 10000 nM and 41 nM.
For `OC(c1c(C2CC2)ccc2cncn12)C1CCC(c2ccc(F)c(Cl)c2)CC1` (stereo not drawn) [Example D129, (4-(3-chloro-4-fluorophenyl)cyclohexyl)(6-cyclopropylimidazo[1,5-a]pyridin-5-yl)methanol], in that order: 148 nM, over 10000 nM and 53 nM.
Regarding `OC(c1c(C2CC2)ccc2cncn12)C1CCC(c2ccc(F)cc2Cl)CC1` (stereo not drawn) [Example D130, (4-(2-chloro-4-fluorophenyl)cyclohexyl)(6-cyclopropylimidazo[1,5-a]pyridin-5-yl)methanol], the concentration for a half-maximal effect (EC50) at IDO1 [1] is 279 nM; in assay [2] it was over 10000 nM. Further, on IDO1 [3], the IC50 came to 50 nM.
Take `OC(c1c(C2CC2)ccc2cncn12)C1CCC(c2ccc(Cl)cc2F)CC1` (stereo not drawn) [Example D131, (4-(4-chloro-2-fluorophenyl)cyclohexyl)(6-cyclopropylimidazo[1,5-a]pyridin-5-yl)methanol]: the values for the concentration giving a half-maximal response (EC50) (at IDO1 [1]; in assay [2]) were 578 nM and over 10000 nM, respectively. Moreover, on IDO1 [3], the IC50 came to 47 nM.
`O[C@@H](c1c(C2CC2)ccc2cncn12)[C@H]1CC[C@H](c2ccc(Cl)cc2F)CC1` [Example D131b, (R)-((1r,4R)-4-(4-chloro-2-fluorophenyl)cyclohexyl)(6-cyclopropylimidazo[1,5-a]pyridin-5-yl)methanol hydrochloride]: the half-maximal effective concentration (EC50) on IDO1 [1] is 6490 nM; in assay [2], over 10000 nM. The IC50 on IDO1 [3] is over 10000 nM.
